Tested on: C57BL/6 male mice
Experiment: In vivo delivery study of lipid nucleic acid mixture (oral gavage, RT-qPCR of PGY-sRNA-26 in tissues)
Set-up: species or system mouse
Conditions: for overall delivery efficacy: delivering nucleic acids into each tissue and blood tested: 100 μg lipid:10 nmol PGY-sRNA-26, all tissues and blood tested; for oral delivery of single-stranded sRNA nucleic acids into mouse blood / oral delivery of single-stranded sRNA nucleic acids into mouse brain tissue / oral delivery of single-stranded sRNA nucleic acids into mouse femur / oral delivery of single-stranded sRNA nucleic acids into mouse heart tissue / oral delivery of single-stranded sRNA nucleic acids into mouse intestinal tissue / oral delivery of single-stranded sRNA nucleic acids into mouse kidney tissue / oral delivery of single-stranded sRNA nucleic acids into mouse liver tissue / oral delivery of single-stranded sRNA nucleic acids into mouse lung tissue / oral delivery of single-stranded sRNA nucleic acids into mouse spleen tissue / oral delivery of single-stranded sRNA nucleic acids into mouse stomach tissue / oral delivery of single-stranded sRNA nucleic acids into mouse pancreatic tissue: 100 μg lipid:10 nmol PGY-sRNA-26, sampled after 12 hours; for oral delivery of single-stranded sRNA nucleic acids into mouse heart tissue: vs free uptake group; for oral delivery of single-stranded sRNA nucleic acids into mouse intestinal tissue: intestine; for oral delivery of single-stranded sRNA nucleic acids into mouse pancreatic tissue: pancreas
Summary of the method: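 Lipid (100 μg) and 10 nmol 3'-methylated single-stranded PGY-sRNA-26 were heated at 90 °C for 15 min, then given by oral gavage to mice fasted 12 h. Controls were saline and free sRNA. Blood and tissues were taken at 12 h, and levels were measured by stem-loop RT-qPCR relative to U6.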

CCCCCCCCCCCCCCCCCCO [Lipid 636, octadecan-1-ol]
can effectively orally deliver: oral delivery of single-stranded sRNA nucleic acids into mouse blood | oral delivery of single-stranded sRNA nucleic acids into mouse brain tissue | oral delivery of single-stranded sRNA nucleic acids into mouse femur | oral delivery of single-stranded sRNA nucleic acids into mouse heart tissue | oral delivery of single-stranded sRNA nucleic acids into mouse intestinal tissue | oral delivery of single-stranded sRNA nucleic acids into mouse kidney tissue | oral delivery of single-stranded sRNA nucleic acids into mouse liver tissue | oral delivery of single-stranded sRNA nucleic acids into mouse lung tissue | oral delivery of single-stranded sRNA nucleic acids into mouse spleen tissue | oral delivery of single-stranded sRNA nucleic acids into mouse stomach tissue
best delivery efficacy: overall delivery efficacy: delivering nucleic acids into each tissue and blood tested

CC/C=C\CCOC(=O)[C@H](O)C(C)C [Lipid 816, [(Z)-hex-3-enyl] (2R)-2-hydroxy-3-methylbutanoate]
can effectively orally deliver: oral delivery of single-stranded sRNA nucleic acids into mouse blood | oral delivery of single-stranded sRNA nucleic acids into mouse brain tissue | oral delivery of single-stranded sRNA nucleic acids into mouse femur | oral delivery of single-stranded sRNA nucleic acids into mouse heart tissue | oral delivery of single-stranded sRNA nucleic acids into mouse intestinal tissue | oral delivery of single-stranded sRNA nucleic acids into mouse kidney tissue | oral delivery of single-stranded sRNA nucleic acids into mouse liver tissue | oral delivery of single-stranded sRNA nucleic acids into mouse lung tissue | oral delivery of single-stranded sRNA nucleic acids into mouse pancreatic tissue | oral delivery of single-stranded sRNA nucleic acids into mouse spleen tissue | oral delivery of single-stranded sRNA nucleic acids into mouse stomach tissue

CCCCC/C=C\C/C=C\C/C=C\C/C=C\CCCC(=O)O [Lipid 620, (5Z,8Z,11Z,14Z)-icosa-5,8,11,14-tetraenoic acid]
can effectively orally deliver: oral delivery of single-stranded sRNA nucleic acids into mouse brain tissue | oral delivery of single-stranded sRNA nucleic acids into mouse femur | oral delivery of single-stranded sRNA nucleic acids into mouse heart tissue | oral delivery of single-stranded sRNA nucleic acids into mouse intestinal tissue | oral delivery of single-stranded sRNA nucleic acids into mouse kidney tissue | oral delivery of single-stranded sRNA nucleic acids into mouse liver tissue | oral delivery of single-stranded sRNA nucleic acids into mouse lung tissue | oral delivery of single-stranded sRNA nucleic acids into mouse spleen tissue | oral delivery of single-stranded sRNA nucleic acids into mouse stomach tissue

CCCCC/C=C\C/C=C\CCCCCCCC(=O)OCCCCCCCCCCCCCC [Lipid 811, tetradecyl (9Z,12Z)-octadeca-9,12-dienoate]
can effectively orally deliver: oral delivery of single-stranded sRNA nucleic acids into mouse blood | oral delivery of single-stranded sRNA nucleic acids into mouse brain tissue | oral delivery of single-stranded sRNA nucleic acids into mouse femur | oral delivery of single-stranded sRNA nucleic acids into mouse heart tissue | oral delivery of single-stranded sRNA nucleic acids into mouse intestinal tissue | oral delivery of single-stranded sRNA nucleic acids into mouse kidney tissue | oral delivery of single-stranded sRNA nucleic acids into mouse liver tissue | oral delivery of single-stranded sRNA nucleic acids into mouse lung tissue | oral delivery of single-stranded sRNA nucleic acids into mouse pancreatic tissue | oral delivery of single-stranded sRNA nucleic acids into mouse spleen tissue | oral delivery of single-stranded sRNA nucleic acids into mouse stomach tissue

CCCCCCCCCCCCCCCCCC(N)=O [Lipid 601, octadecanamide]
can effectively orally deliver: oral delivery of single-stranded sRNA nucleic acids into mouse blood | oral delivery of single-stranded sRNA nucleic acids into mouse brain tissue | oral delivery of single-stranded sRNA nucleic acids into mouse femur | oral delivery of single-stranded sRNA nucleic acids into mouse heart tissue | oral delivery of single-stranded sRNA nucleic acids into mouse intestinal tissue | oral delivery of single-stranded sRNA nucleic acids into mouse kidney tissue | oral delivery of single-stranded sRNA nucleic acids into mouse liver tissue | oral delivery of single-stranded sRNA nucleic acids into mouse lung tissue | oral delivery of single-stranded sRNA nucleic acids into mouse spleen tissue | oral delivery of single-stranded sRNA nucleic acids into mouse stomach tissue
best delivery efficacy: overall delivery efficacy: delivering nucleic acids into each tissue and blood tested

CCCCCC/C=C\CCCCCCCC(=O)OCCCCCCCCCCCCCCCCCCC [Lipid 822, nonadecyl (Z)-hexadec-9-enoate]
can effectively orally deliver: oral delivery of single-stranded sRNA nucleic acids into mouse blood | oral delivery of single-stranded sRNA nucleic acids into mouse brain tissue | oral delivery of single-stranded sRNA nucleic acids into mouse femur | oral delivery of single-stranded sRNA nucleic acids into mouse heart tissue | oral delivery of single-stranded sRNA nucleic acids into mouse intestinal tissue | oral delivery of single-stranded sRNA nucleic acids into mouse kidney tissue | oral delivery of single-stranded sRNA nucleic acids into mouse liver tissue | oral delivery of single-stranded sRNA nucleic acids into mouse lung tissue | oral delivery of single-stranded sRNA nucleic acids into mouse pancreatic tissue | oral delivery of single-stranded sRNA nucleic acids into mouse spleen tissue | oral delivery of single-stranded sRNA nucleic acids into mouse stomach tissue
best delivery efficacy: overall delivery efficacy: delivering nucleic acids into each tissue and blood tested

CC(=O)C1CCOC1=O (stereo not drawn) [Lipid 612, 3-acetyloxolan-2-one]
can effectively orally deliver: oral delivery of single-stranded sRNA nucleic acids into mouse femur | oral delivery of single-stranded sRNA nucleic acids into mouse intestinal tissue | oral delivery of single-stranded sRNA nucleic acids into mouse liver tissue | oral delivery of single-stranded sRNA nucleic acids into mouse stomach tissue

CCCCCCCCCCCCCCCCCCCCCCC(=O)NCCO [Lipid 519, N-(2-hydroxyethyl)tricosanamide]
can effectively orally deliver: oral delivery of single-stranded sRNA nucleic acids into mouse heart tissue | oral delivery of single-stranded sRNA nucleic acids into mouse kidney tissue | oral delivery of single-stranded sRNA nucleic acids into mouse lung tissue | oral delivery of single-stranded sRNA nucleic acids into mouse stomach tissue

CCCC(=O)CC(=O)N[C@H]1CCOC1=O [Lipid 622, 3-oxo-N-[(3S)-2-oxooxolan-3-yl]hexanamide]
can effectively orally deliver: oral delivery of single-stranded sRNA nucleic acids into mouse blood | oral delivery of single-stranded sRNA nucleic acids into mouse brain tissue | oral delivery of single-stranded sRNA nucleic acids into mouse femur | oral delivery of single-stranded sRNA nucleic acids into mouse intestinal tissue | oral delivery of single-stranded sRNA nucleic acids into mouse liver tissue | oral delivery of single-stranded sRNA nucleic acids into mouse lung tissue | oral delivery of single-stranded sRNA nucleic acids into mouse spleen tissue | oral delivery of single-stranded sRNA nucleic acids into mouse stomach tissue

CCCCC(N)=O [Lipid 610]
can effectively orally deliver: oral delivery of single-stranded sRNA nucleic acids into mouse femur | oral delivery of single-stranded sRNA nucleic acids into mouse kidney tissue | oral delivery of single-stranded sRNA nucleic acids into mouse lung tissue | oral delivery of single-stranded sRNA nucleic acids into mouse spleen tissue | oral delivery of single-stranded sRNA nucleic acids into mouse stomach tissue

CC/C=C/C=C/C=O [Lipid 618, (2E,4E)-hepta-2,4-dienal]
can effectively orally deliver: oral delivery of single-stranded sRNA nucleic acids into mouse brain tissue | oral delivery of single-stranded sRNA nucleic acids into mouse femur | oral delivery of single-stranded sRNA nucleic acids into mouse intestinal tissue | oral delivery of single-stranded sRNA nucleic acids into mouse liver tissue | oral delivery of single-stranded sRNA nucleic acids into mouse lung tissue

CCCCCCCCCCCCCCCC(N)=O [Lipid 599, hexadecanamide]
can effectively orally deliver: oral delivery of single-stranded sRNA nucleic acids into mouse blood | oral delivery of single-stranded sRNA nucleic acids into mouse brain tissue | oral delivery of single-stranded sRNA nucleic acids into mouse femur | oral delivery of single-stranded sRNA nucleic acids into mouse heart tissue | oral delivery of single-stranded sRNA nucleic acids into mouse intestinal tissue | oral delivery of single-stranded sRNA nucleic acids into mouse kidney tissue | oral delivery of single-stranded sRNA nucleic acids into mouse liver tissue | oral delivery of single-stranded sRNA nucleic acids into mouse lung tissue | oral delivery of single-stranded sRNA nucleic acids into mouse spleen tissue | oral delivery of single-stranded sRNA nucleic acids into mouse stomach tissue
best delivery efficacy: overall delivery efficacy: delivering nucleic acids into each tissue and blood tested

From patent US20250073255A1, “USE OF FA-TYPE LIPID COMPOUNDS IN PREPARATION OF NUCLEIC ACID DELIVERY REAGENT AND RELATED PRODUCT” (BEIJING BAISHIKANG PHARMACEUTICAL TECHNOLOGY (BSJPHARMA) …, priority 2021, published 2025)
